From US20130011845A1, “MICRORNA REGULATING THE INSULIN SIGNALING PATHWAY, AND METHOD FOR SCREENING MATERIAL FOR CONTROLLING THE ACTION OF A TARGET THEREOF” (SNU R & DB Foundation, priority 2009, published 2013)

Columns and labels:
Type in all cases: cell-based
CG8445 3′UTR = assay: dual-luciferase 3′UTR reporter assay, pAC-CG8445; details: luciferase reporter with CG8445 3′UTR, drosophila S2 cell lines; average of at least two independent experiments
Protocol: (§1) In order to determine whether the target genes identified in Example 7 are in actuality targets of miR-8 and miR-200 family miRNAs, the inventors performed cloning. In other words, they inserted a luciferase gene into downstream of each target gene's 3′UTR containing the miRNA target sites. Specifically, in order to obtain cDNAs of respective target genes, from drosophila S2 cell lines or human Hela cell lines, total RNA was extracted by using RNeasy mini kit (QIAGEN, US). 1 μg of total RNA and 1 μl of Oligo-dT (Invitrogen, US) were charged with up to 50 μl of distilled water, and placed into SuperScript First-Strand Synthesis System (Invitrogen, US), followed by RT-PCR reaction. Through the reaction at 65° C. for 6 min, at 4° C. for 5 min, at 42° C. for 60 min, at 95° C. for 5 min, and at 4° C. for 5 min, cDNA was synthesized. […]
(§2) Reporter plasmids and renilla luciferase expression vectors (Promega, US), as noted in Table 4, and miRNAs of miR-200 family of miR-141, miR-200a (hsa-miR-200a, SEQ ID: 87: 5′-[…]-3′), miR-200b, miR-200c (has-miR-200c, SEQ ID: 88: 5′-[…]-3′) and miR-429, and miR-8 (dme-miR-8, SEQ ID: 89: 5′-[…]-3′) were bought from Samchonri and cotransfected into drosophila S2 cell lines or human Hela cell lines. Then, the activities of luciferase were measured through dual-luciferase assay (Promega, US) by a luminometer (Biorad). […]

Ced-12 3′UTR = assay: dual-luciferase 3′UTR reporter assay, pAC-Ced-12; details: luciferase reporter with Ced-12 3′UTR, drosophila S2 cell lines; average of at least two independent experiments
Protocol: as §1, §2

dbo 3′UTR = assay: dual-luciferase 3′UTR reporter assay, pAC-dbo; details: luciferase reporter with dbo 3′UTR, drosophila S2 cell lines; average of at least two independent experiments
Protocol: as §1, §2

Lar 3′UTR = assay: dual-luciferase 3′UTR reporter assay, pAC-Lar; details: luciferase reporter with Lar 3′UTR, drosophila S2 cell lines; average of at least two independent experiments
Protocol: as §1, §2

CG12333 3′UTR = assay: dual-luciferase 3′UTR reporter assay, pAC-CG12333; details: luciferase reporter with CG12333 3′UTR, drosophila S2 cell lines; average of at least two independent experiments
Protocol: as §1, §2

ush 3′UTR = assay: dual-luciferase 3′UTR reporter assay, pAC-ush; details: luciferase reporter with ush 3′UTR, drosophila S2 cell lines; average of at least two independent experiments
Protocol: as §1, §2

Lap1 3′UTR = assay: dual-luciferase 3′UTR reporter assay, pAC-Lap1; details: luciferase reporter with Lap1 3′UTR, drosophila S2 cell lines; average of at least two independent experiments
Protocol: as §1, §2

ebf 3′UTR = assay: dual-luciferase 3′UTR reporter assay, ebf; details: luciferase reporter with ebf 3′UTR, drosophila S2 cell lines; average of at least two independent experiments
Protocol: as §1, §2

5′-UAAUACUGUCAGGUAAAGAUGUC-3′ (listed as RNA, chemistry not given here) [miR-8]
Repression fold, CG8445 (CG8445 3′UTR): 0.43 fold
Repression fold, Ced-12 (Ced-12 3′UTR): 0.51 fold
Repression fold, dbo (dbo 3′UTR): 0.54 fold
Repression fold, Lar (Lar 3′UTR): 0.42 fold
Repression fold, CG12333 (CG12333 3′UTR): 0.59 fold
Repression fold, ush (ush 3′UTR): 0.71 fold
Repression fold, Lap1 (Lap1 3′UTR): 0.46 fold
Repression fold, ebf (ebf 3′UTR): 0.75 fold
